Data on 52 compounds can be found in PubChem BioAssay AID1996.

The solubility (kinetic) is solubility judged after dilution from a stock solution rather than from solid.

Converted amounts (≈) assume the structure as drawn. A value given as a limit tells only on which side of the number the result lay.

For the data set the following is noted: buffer; pH 7.4; 200.0 µM.
In the case of `CCN(CC)c1ccc(NC(=O)c2cc3c(OC)cccc3[nH]2)cc1`, the solubility (kinetic) amounted to 0.5 µg/mL (≈ 1.48 µM).
The same measure for `CCOC(=O)Cc1csc(NS(=O)(=O)c2ccc(C(F)(F)F)cc2)n1`: > 59.2 µg/mL; for `C=CCNc1nc2c(c(=O)[nH]c(=O)n2C)n1CCCc1ccccc1`: 5.2 µg/mL (≈ 15.3 µM).
In the case of `O=C(COc1ccccc1[N+](=O)[O-])NCC1COc2ccccc2O1` (configuration not stated), the kinetic solubility amounted to 24.2 µg/mL (≈ 70.3 µM).
As to `CC(NC(=O)c1ccccc1Cl)C(=O)OCc1cn2cc(Cl)ccc2n1` (configuration not stated), the solubility (kinetic) is > 58.8 µg/mL.
The same measure for `O=S(=O)(c1ccc(Br)cc1Cl)N1CCCN(c2ccc(C(F)(F)F)cn2)CC1`: 3 µg/mL (≈ 6.02 µM).
On to `CC(=O)c1ccc(NC(=S)NN2C(C)CCCC2C)cc1` (configuration not stated), for which the solubility (kinetic) was > 45.8 µg/mL.
The same measure for `Cc1cc(/C(N)=N/OC(=O)Nc2ccc(Cl)cc2)no1`: 15.9 µg/mL (≈ 54 µM).
The same measure for `O=C(CNC(=O)c1ccc(Br)cc1)c1ccccc1`: 1.3 µg/mL (≈ 4.09 µM); for `C=CC(=O)NC1CC2CCC1(C)C2(C)C` (configuration not stated): > 31.1 µg/mL.
The same measure for `COc1ccc(NC(=O)CSc2nc3ccccc3c(=O)n2C)cc1`: < 0.3 µg/mL; for `CCCSC1C(C)=C(C)C(=O)N1Cc1ccccc1` (configuration not stated): 35.5 µg/mL (≈ 129 µM).
`COc1cccc(NC(=O)CN(C)C(C)C(=O)N2CCCCC2)c1.O=C(O)C(=O)O` (configuration not stated): the solubility (kinetic) is > 63.5 µg/mL.
The same measure for `O=C(O)CCC(=O)Nc1cc(C(F)(F)F)cc(C(F)(F)F)c1`: 43.6 µg/mL (≈ 132 µM); for `CCCC(=O)N1CCN(c2nc3ccc(Cl)cc3s2)CC1`: 46.3 µg/mL (≈ 143 µM).
`Cc1ccc(C)c(NS(=O)(=O)c2ccccc2C)c1`: the kinetic solubility stood at 38.8 µg/mL (≈ 141 µM).
For the compound `O=C(c1ccccc1)c1nccn1-c1ccc(Cl)nn1`, the kinetic solubility was > 42.7 µg/mL.
The same measure for `O=C(Nc1ccccc1F)c1cc(-c2ccco2)nc2ccccc12`: 0.7 µg/mL (≈ 2.11 µM).
The same measure for `N#Cc1c(-c2ccccc2)ccnc1N1CCOCC1`: 17.6 µg/mL (≈ 66.3 µM); for `COc1ccc2cc(C(=O)N3CCN(c4cccc(C)c4C)CC3)[nH]c2c1`: 1.2 µg/mL (≈ 3.3 µM); for `Cc1ccc(N(C(C)C(=O)N2CCCC2)S(C)(=O)=O)cc1` (configuration not stated): > 46.6 µg/mL.
The same measure for `O=C(CN1C(=O)NC2(CCCC2)C1=O)Nc1ccccc1N1CCCC1`: 46.4 µg/mL (≈ 130 µM); for `CCOc1ccc(N2CC(C(=O)NC3CCCCCC3)CC2=O)cc1` (configuration not stated): 15.2 µg/mL (≈ 44.1 µM).
Turning to `C/C(=N\OCC(=O)Nn1c(C)nc2ccccc2c1=O)c1cccs1`, the kinetic solubility was > 53.5 µg/mL.
Regarding `CC1(C)CC(NC(=O)c2ccc(Cl)c(Cl)c2)CC(C)(C)N1`, the kinetic solubility is > 49.4 µg/mL.
The same measure for `FC(F)(F)c1ccc(NCc2ccccn2)nc1`: > 38 µg/mL; for `Cc1csc(NC(=O)Cc2c(F)cccc2Cl)n1`: 36.4 µg/mL (≈ 128 µM); for `COC(=O)c1ccc(NC(=O)C[n+]2ccccc2C)cc1.[Cl-]`: > 48.1 µg/mL.
The same measure for `COc1ccc(C(=O)CSc2nc(C)cc(C)n2)cc1C`: 17.4 µg/mL (≈ 57.5 µM); for `Cc1cccc(C(=O)OCc2cncs2)c1`: 28.9 µg/mL (≈ 124 µM).
The same measure for `O=C(c1cccs1)N1CCN(c2ncc(Br)cn2)CC1`: 9.5 µg/mL (≈ 26.9 µM).
As for `CCN(CC)Cc1c(O)ccc2c(=O)c(-c3ccccc3OC)coc12`, the solubility (kinetic) is > 53 µg/mL.
The same measure for `CC(C)(C)C(=O)OCc1nc(-c2ccc(C(F)(F)F)cc2)cs1`: < 0.7 µg/mL; for `Cc1ccc(N/C=C/C(=O)c2ccccc2)cc1Br`: < 0.7 µg/mL; for `Nc1nc(C(c2ccccc2)c2ccccc2)cs1`: 11 µg/mL (≈ 41.3 µM).
The same measure for `Cc1cc(Nc2ccc(N3CCOCC3)cc2)c2cccc(C)c2n1.Cl`: 55 µg/mL.
With `CC(=O)c1ccccc1NC(=O)CCN1C(=O)C2CCCCC2C1=O` (configuration not stated), the kinetic solubility is > 51.4 µg/mL.
The same measure for `O=S(=O)(c1ccc(F)c(F)c1F)N1CCN(c2ncnc3sccc23)CC1`: 2.5 µg/mL (≈ 6.03 µM); for `Cc1ccc(S(=O)(=O)n2cc(C=O)c3ccccc32)cc1`: < 0.6 µg/mL; for `CCOc1ccc2nc(N3C(=O)CNC3=S)sc2c1`: 2.5 µg/mL (≈ 8.52 µM).
For the compound `O=C(O)/C=C/c1cccnc1`, the kinetic solubility was > 22.4 µg/mL.
On to `Cc1cc(C(=O)N2CCC(Cc3ccccc3)CC2)no1`, for which the kinetic solubility turned out to be 36.7 µg/mL (≈ 129 µM).
The same measure for `COc1ccc(-n2c(O)c(C=NCc3ccc4c(c3)OCO4)c(=O)[nH]c2=O)cc1`: 6.8 µg/mL (≈ 17.2 µM).
As for `O=C1c2ccc(Oc3ccc([N+](=O)[O-])cc3)cc2C(=O)N1CCCO`, the kinetic solubility worked out at 49 µg/mL (≈ 143 µM).
The compound `O=C1c2ccccc2NC(c2ccccc2O)N1c1ccc(F)cc1` (configuration not stated) returned a solubility (kinetic) of 5.5 µg/mL (≈ 16.4 µM).
The same measure for `Cc1cccc(C2NC(c3cccc(C)c3)C(C)C(=O)C2C)c1` (configuration not stated): 0.8 µg/mL (≈ 2.6 µM).
`FC(F)(F)c1ccccc1N1CC1c1ccncc1` (configuration not stated) came in with a kinetic solubility of 31 µg/mL (≈ 117 µM).
The same measure for `COc1ccnc2c1c(=O)n(Cc1ccc(F)cc1)c(=O)n2C`: 25.2 µg/mL (≈ 79.9 µM).
Regarding `CCCN(CCC)CC(C)(C)NS(=O)(=O)c1ccc(Cl)cc1`, the kinetic solubility came to 39.6 µg/mL (≈ 114 µM).
In turn, `COc1ccc(C(=O)NC(=S)NCc2ccco2)cc1` gave a solubility (kinetic) of 4.6 µg/mL (≈ 15.8 µM).
The same measure for `COc1ccc(C(=O)N=c2sccn2C)cc1`: 36.1 µg/mL (≈ 145 µM); for `CC(=O)c1cccc(NC(=O)COC(=O)c2ccccc2C)c1`: 4.9 µg/mL (≈ 15.7 µM).
